Here are results for 15 molecules from patent US10647680B2, “Urea compound, preparation method therefor and medical use thereof” (Ancureall Pharmaceutical (Shanghai) Co., Ltd., priority 2016, dated 2020).

A short description of data set [1]: Solubility test. Type of data set: physicochemical. Conditions: in water at 25° C.±2° C. As for the experimental part:
The fine powder of the test sample was weighed into an appropriate amount of water at 25° C.±2° C. and shaken vigorously for 30 seconds every 5 minutes so that it was fully dissolved within 30 minutes. If no visible solute particles were observed, it was considered completely dissolved. “Readily soluble” means that 1 g of the test sample could be dissolved in 1-10 ml of water; and “soluble” means that 1 g of the test sample could be dissolved in 10-30 ml of water; “slightly soluble” means that 1 g of the test sample could be dissolved in 30-100 ml of water; and “sparingly soluble” means that 1 g of the test sample could be dissolved in 100-1,000 ml of water; “nearly insoluble or insoluble” means that 1 g of the test sample could not be completely dissolved in 10,000 ml of water.

The test system of data set [2] is U937 (FLT3 wild-type). Briefly: In vitro growth inhibition (GI50), U937. Type of data set: cell-based. Conditions: Homo sapiens, U-937; Cell lines of leukemia; read-out: GI 50 U937 FLT 3(WT).
In data set [3] the test system is Kasumi-1 (c-Kit N822K mutant type). Briefly: In vitro growth inhibition (GI50), Kasumi-1. Type of data set: cell-based. To be noted: Homo sapiens, Cell lines of leukemia, read-out: GI 50 Kasumi-1 Kit (N822K). The method, boiled down: (§1)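 Cells in RPMI1640 with 10% FBS, seeded at 5–10×10^4 cells/mL, exposed next day to compound at 5,000 nM down to 0.01 nM (2- or 10-fold dilutions, ≤1% solvent) for 3–5 days at 37 °C. CCK8 absorbance at 450 nm, growth rate relative to pre-treatment and solvent controls, GI50 from concentration–growth curve.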

The test system of data set [4] is RAMOS (positive expression of Brutons tyrosine protein kinase). The experiment in a line: In vitro growth inhibition (GI50), RAMOS. Type of data set: cell-based. Conditions: Homo sapiens, Cell lines of leukemia, read-out: GI 50 Ramos BTK.
Data set [5] has as its system K562 (FLT3 negative expression, positive expression of BCR-ABL fusion protein). Briefly: In vitro growth inhibition (GI50), K562. Type of data set: cell-based. To be noted: Homo sapiens, Cell lines of leukemia, read-out: GI 50 K562 BCR-ABL.
Data set [6] deals with RS4; 11 (FLT3 wild type). Briefly: In vitro growth inhibition (GI50), RS4; 11. Type of data set: cell-based, human. To be noted: Homo sapiens, RS4-11; Cell lines of leukemia; read-out: GI 50 RS4: 11 FLT3 (WT).
For data set [7], the system named is MV4-11 (FLT3 ITD+/+ mutant type). Briefly: In vitro growth inhibition (GI50), MV4-11. Type of data set: cell-based, human. Conditions: for GI50: Homo sapiens, MV4-11, Cell lines of leukemia, read-out: GI 50 MV4-11 FLT3 (ITD +/+).
Data set [8] has as its system OCI-AML3 (NPMc+ mutant type). The experiment in a line: In vitro growth inhibition (GI50), OCI-AML3. Type of data set: cell-based. Conditions: Homo sapiens, OCI-AML-3; Cell lines of leukemia; read-out: GI 50 OCI- AML3 NPMc+.
Data set [9] has as its system MOLM-13 (FLT3 ITD+/− mutant type). The experiment in a line: In vitro growth inhibition (GI50), MOLM-13. Type of data set: cell-based, human. To be noted: for GI50: Homo sapiens, MOLM-13, Cell lines of leukemia, read-out: GI 50 MOLM-13 FLT3 (ITD+/−).
Data set [10] relates to KG-1 (expressing FGFR1OP2-FGFR1 fusion protein). Briefly: In vitro growth inhibition (GI50), KG-1. Type of data set: cell-based. To be noted: Homo sapiens; Cell lines of leukemia; read-out: GI 50 KG-1 FGFR1OP 2-FGFR1.
Data set [11] deals with HL-60 (FLT3 wild type). The experiment in a line: In vitro growth inhibition (GI50), HL-60. Type of data set: cell-based. Conditions: Homo sapiens, Cell lines of leukemia, read-out: GI 50 HL60 FLT3 (WT). In a few lines:
as §1

[12] abbreviates: compared with the control compound AC220.

Structures can show the parent of a compound that is named as a salt.

Consider `CC(C)(C)c1cc(NC(=O)Nc2ccc(-n3cnc4cc(OCCN5CCOCC5)ccc43)cc2)no1` [Compound 16 Mesylate, 1-(5-tert-butyl-isoxazol-3-yl)-3-{4-[5-(2-morpholin-4-yl-ethoxyl)-benzimidazol-1-yl]-phenyl}-urea], for which the Solubility result in data set [1] (listed as 16 Mesylate) is reported as “readily soluble (“Readily soluble” means that 1 g of the test sample could be dissolved in 1-10 ml of water)”.
For `COc1ccc2c(c1)ncn2-c1ccc(NC(=O)Nc2cc(C(C)(C)C)n[nH]2)cc1` [Compound 71 Hydrochloride, 1-(5-tert-butyl-2H-pyrazol-3-yl)-3-[4-(5-methoxyl-benzimidazol-1-yl)-phenyl]-urea], the Solubility result in data set [1] (listed as 71 Hydrochloride) is on record as “slightly soluble (“slightly soluble” means that 1 g of the test sample could be dissolved in 30-100 ml of water)”.
On to `COCCOc1ccc2c(c1)ncn2-c1ccc(NC(=O)Nc2cc(C(C)(C)C)n[nH]2)cc1` [Compound 77 Benzene sulfonate, 1-(5-tert-butyl-2H-pyrazol-3-yl)-3-{4-[5-(2-methoxyl-ethoxyl)-benzimidazol-1-yl]-phenyl}-urea], for which the Solubility entry in data set [1] (listed as 77 Benzene sulfonate) is “slightly soluble (“slightly soluble” means that 1 g of the test sample could be dissolved in 30-100 ml of water)”.
For the molecule `COCCOc1ccc2c(c1)ncn2-c1ccc(NC(=O)Nc2cc(C(C)(C)C)n[nH]2)cc1` [Compound 77 Hydrochloride, 1-(5-tert-butyl-2H-pyrazol-3-yl)-3-{4-[5-(2-methoxyl-ethoxyl)-benzimidazol-1-yl]-phenyl}-urea], in [1] (listed as 77 Hydrochloride), the Solubility result is on record as “slightly soluble (“slightly soluble” means that 1 g of the test sample could be dissolved in 30-100 ml of water)”.
Consider `COCCOc1ccc2c(c1)ncn2-c1ccc(NC(=O)Nc2cc(C(C)(C)C)n[nH]2)cc1` [Compound 77 Trifluoroacetates, 1-(5-tert-butyl-2H-pyrazol-3-yl)-3-{4-[5-(2-methoxyl-ethoxyl)-benzimidazol-1-yl]-phenyl}-urea], for which, in data set [1] (listed as 77 Trifluoroacetates), the Solubility entry is recorded as “slightly soluble (“slightly soluble” means that 1 g of the test sample could be dissolved in 30-100 ml of water)”.
Regarding `COCCOc1ccc2c(c1)ncn2-c1ccc(NC(=O)Nc2cc(C(C)(C)C)n[nH]2)cc1` [Compound 77 p-toluenesulfonate, 1-(5-tert-butyl-2H-pyrazol-3-yl)-3-{4-[5-(2-methoxyl-ethoxyl)-benzimidazol-1-yl]-phenyl}-urea], in [1] (listed as 77 p-toluenesulfonate), the Solubility result was “slightly soluble (“slightly soluble” means that 1 g of the test sample could be dissolved in 30-100 ml of water)”.
In the case of `CN(C)CCCOc1ccc2c(c1)ncn2-c1ccc(NC(=O)Nc2cc(C(C)(C)C)n[nH]2)cc1` [Compound 81 Mesylate], in data set [1], the Solubility result is “readily soluble (“Readily soluble” means that 1 g of the test sample could be dissolved in 1-10 ml of water)”.
On to `CN(C)CCCOc1ccc2c(c1)ncn2-c1ccc(NC(=O)Nc2cc(C(C)(C)C)n[nH]2)cc1` [Compound 81], for which the GI50 in data set [2] is 100 to 1000 nM; in [3], over 1000 nM; in data set [4], 100 to 1000 nM; in data set [5], 100 to 1000 nM; in [6], 10 to 100 nM; in [7] it was 0.01 to 0.1 nM. Besides, the GI50 was over 1000 nM in data set [8], 0.01 to 0.1 nM in data set [9], over 1000 nM in data set [10] and 100 to 1000 nM in data set [11]. For the same molecule, in data set [7] (setting [12]), the “inhibition activity against the growth of MV4-11 cells compared with AC220” value was “stronger inhibition activity”. In addition, the “inhibition activity against the growth of MOLM-13 cells compared with AC220” value in data set [9] (setting [12]) was “stronger inhibition activity”. In addition, the Solubility result in data set [1] (listed as 81 Free base) is reported as “insoluble (“nearly insoluble or insoluble” means that 1 g of the test sample could not be completely dissolved in 10,000 ml of water)”.
As to `CC(C)(C)c1cc(NC(=O)Nc2ccc(-n3cnc4cc(OCCN5CCOCC5)ccc43)cc2)[nH]n1` [Compound 89 Mesylate, 1-(5-tert-butyl-2H-pyrazol-3-yl)-3-{4-[5-(2-morpholin-4-yl-ethoxyl)-benzimidazol-1-yl]-phenyl}-urea], in [1], the Solubility entry is “readily soluble (“Readily soluble” means that 1 g of the test sample could be dissolved in 1-10 ml of water)”.
`COCCOc1ccc2ncn(-c3ccc(NC(=O)Nc4cc(C(C)(C)C)n[nH]4)cc3)c2c1` [Compound 98 Mesylate, 1-(5-tert-butyl-2H-pyrazol-3-yl)-3-{4-[6-(2-methoxyl-ethoxyl)-benzimidazol-1-yl]-phenyl}-urea]: the Solubility entry in data set [1] is “readily soluble (“Readily soluble” means that 1 g of the test sample could be dissolved in 1-10 ml of water)”.
As to `COCCOc1ccc2ncn(-c3ccc(NC(=O)Nc4cc(C(C)(C)C)n[nH]4)cc3)c2c1` [Compound 98, 1-(5-tert-butyl-2H-pyrazol-3-yl)-3-{4-[6-(2-methoxyl-ethoxyl)-benzimidazol-1-yl]-phenyl}-urea], the GI50 in data set [2] was over 1000 nM; in [3], over 1000 nM; in [4], over 1000 nM; in data set [5] it was over 1000 nM; in [6], over 1000 nM; in data set [7] it was 0.1 to 1 nM. For the same molecule, the GI50 in [8] was over 1000 nM; in [9], 0.1 to 1 nM; in [10], over 1000 nM; in [11], over 1000 nM. The Solubility entry in data set [1] (listed as 98 Free base) is reported as “insoluble (“nearly insoluble or insoluble” means that 1 g of the test sample could not be completely dissolved in 10,000 ml of water)”.
As to `CCCCCCOc1ccc2c(c1)ncn2-c1ccc(NC(=O)n2nc(C(C)(C)C)cc2N)cc1` [Compound 117 Mesylate, 5-amino-3-tert-butyl-pyrazol-1-carboxylic acid [4-(5-hexyloxyl-benzimidazol-1-yl)-phenyl]-amide], the Solubility result in data set [1] is recorded as “readily soluble (“Readily soluble” means that 1 g of the test sample could be dissolved in 1-10 ml of water)”.
Regarding `CCCCCCOc1ccc2c(c1)ncn2-c1ccc(NC(=O)n2nc(C(C)(C)C)cc2N)cc1` [Compound 117, 5-amino-3-tert-butyl-pyrazol-1-carboxylic acid [4-(5-hexyloxyl-benzimidazol-1-yl)-phenyl]-amide], the GI50 in data set [2] was over 1000 nM; in [3] it was over 1000 nM; in data set [4], over 1000 nM; in data set [5], over 1000 nM; in data set [6], over 1000 nM; in data set [7], 100 to 1000 nM. The GI50 in data set [8] was over 1000 nM; in data set [9], 100 to 1000 nM; in data set [10] it was over 1000 nM; in data set [11], over 1000 nM. The Solubility result in data set [1] (listed as 117 Free base) is “insoluble (“nearly insoluble or insoluble” means that 1 g of the test sample could not be completely dissolved in 10,000 ml of water)”.
`CC(C)(C)c1cc(N)n(C(=O)Nc2ccc(-n3cnc4cc(OCCO)ccc43)cc2)n1` [Compound 121 Mesylate, 5-amino-3-tert-butyl-pyrazol-1-carboxylic acid {4-[5-(2-hydroxy-ethoxyl)-benzimidazol-1-yl]-phenyl}-amide]: the Solubility result in data set [1] is “readily soluble (“Readily soluble” means that 1 g of the test sample could be dissolved in 1-10 ml of water)”.
For the molecule `COc1cc2ncn(-c3ccc(NC(=O)n4nc(C(C)(C)C)cc4N)cc3)c2cc1OC` [Compound 129 Mesylate, 5-amino-3-tert-butyl-pyrazol-1-carboxylic acid [4-(5,6-dimethoxyl-benzimidazol-1-yl)-phenyl]-amide], in [1], the Solubility entry is recorded as “readily soluble (“Readily soluble” means that 1 g of the test sample could be dissolved in 1-10 ml of water)”.
